{"source": "patent US5981507A", "about": "“Polymeric carriers linked to nucleotide analogues via a phosphoramide bond” (Advanced Magnetics, Inc., priority 1996, dated 1999)", "key": {"[1]": {"test_system": "2.2.15 cells", "conditions": "β-L-FTC; Schinazi et al. Antimicrob. Agent Chem (1994) 38, 2172; cited from earlier work"}, "[2]": {"test_system": "HBV", "conditions": "β-L-FTC, Schinazi et al. 1994, cited from earlier work"}, "[3]": {"conditions": "background art; cited from earlier work"}, "[4]": {"assay": "Cytotoxicity in 2.2.15 cells (uptake of neutral red dye)", "format": "cell-based", "conditions": "human, nine daily additions", "description": "(§1) The antiviral activities and cytotoxicity of a macromolecular prodrug of Dextran-araA made according to the teachings in Example 40 and the parent nucleoside analog araA were evaluated using […] (obtained from transfection of the Hep G2 human hepatoblastoma cell line with HBV) as described by Korba and Gerin (Korba B E, Gerin J L., Antiviral Research 1992; 19:55-70.) It is standard system widely used to compare the safety and efficacy of drugs for the treatment of HBV. The data for β-L-FTC,a nucleoside analog with pharmacological properties similar to Lamivudine (3TC), in the same system are shown for comparison. Lamivudine is a recently developed nucleoside analog that has been approved by the U.S. FDA for the treatment of HIV and has shown promise in extensive clinical trials against HBV\nBriefly, the test compounds were added to confluent cultures of 2.2.15 cells every 24 hours for nine consecutive days in fresh culture media (RPMI 1640 with 2% fetal bovine serum, Gibco Inc., Grand Island N.Y. U.S.A.). The amount of extracellular HBV virion DNA and intracellular HBV replication intermediates were determined using quantitative blot hybridization analyses (dot, Southern and northern blots, respectively, Korba B E, Gerin J L., Antiviral Research 1992; 19:55-70; Korba B E, Milman., Antiviral Research 1991; 15:217-228). […]"}, "[5]": {"test_system": "HBV", "assay": "Antiviral activity on HBV replication in 2.2.15 cells (blot hybridization of virion DNA and replicative intermediates)", "format": "cell-based", "conditions": "for EC90: Hepatitis B virus, 90% inhibition of viral replication", "description": "A common method of evaluating the success of antiviral and anticancer agents is by measuring the efficacy and toxicity in tissue culture systems. The antiviral activity of the macromolecular prodrug made according to the teachings in Example 40 was evaluated in […], a common assay for evaluating efficacy and toxicity of agent for Hepatitis B, as described in detail in Example 42.\nas §1\nBriefly, the test compounds were added to confluent cultures of 2.2.15 cells every 24 hours for nine consecutive days in fresh culture media (RPMI 1640 with 2% fetal bovine serum, Gibco Inc., Grand Island N.Y. U.S.A.). The amount of extracellular HBV virion DNA and intracellular HBV replication intermediates were determined using quantitative blot hybridization analyses (dot, Southern and northern blots, respectively, Korba B E, Gerin J L., Antiviral Research 1992; 19:55-70; Korba B E, Milman., Antiviral Research 1991; 15:217-228).\nEfficacy was determined by the concentrations of agent giving 90% inhibition of viral replication (EC90) as measured in changes of HBV virion DNA and replicative intermediates. Cytotoxicity caused by the agents was measured by the uptake of neutral red dye. The cytotoxic concentration (CC50), was considered to be the concentration at which 50% of the cells took up due the dye. The selectivity index (SI, CC50 /EC90) is measure of drug toxicity in relation to drug efficacy."}, "[6]": {"conditions": "Intracellular RI DNA (values in parentheses)"}}, "note": "Where two headings read alike, the source gives them in different places."}
{"smiles": "Nc1nc(=O)n([C@@H]2CS[C@H](CO)O2)cc1F", "note": "[β-L-FTC]", "values": [{"measurement": "CC50", "setting": "[1]", "value": 746, "unit": "µM"}, {"measurement": "EC90", "setting": "[2]; Extracellular DNA", "value": 1.1, "unit": "µM"}, {"measurement": "SI (CC50/EC90)", "setting": "[2]; Extracellular DNA", "value": 678}, {"measurement": "EC90", "setting": "[2]; Intracellular RI DNA", "value": 0.39, "unit": "µM"}, {"measurement": "SI (CC50/EC90)", "setting": "[2]; Intracellular RI DNA", "value": 1913}]}
{"smiles": "O=c1[nH]cnc2c1ncn2[C@@H]1O[C@H](CO)[C@@H](O)[C@@H]1O", "note": "[arahypoxanthine]", "values": [{"measurement": "antiviral effect", "setting": "[3]", "value": "little antiviral effect"}]}
{"smiles": "Nc1ncnc2c1ncn2[C@@H]1O[C@H](CO)[C@@H](O)[C@@H]1O", "note": "[araA]", "values": [{"measurement": "CC50", "setting": "[4]", "value": "188 ± 20", "unit": "µM"}, {"measurement": "SI (CC50/EC90)", "setting": "[5]; Extracellular DNA", "value": 11}, {"measurement": "EC90", "setting": "[5]; Extracellular DNA (HBV virion)", "value": "17 ± 1.9", "unit": "µM"}, {"measurement": "EC90", "setting": "[5]; [6]", "value": "25 ± 2.1", "unit": "µM"}, {"measurement": "SI (CC50/EC90)", "setting": "[5]; [6]", "value": 7.5}, {"measurement": "SI (rounded)", "setting": "[5]; text statement on the SI of Table 3", "value": "about 10"}]}
